Test results taken from ChEMBL document CHEMBL4184317, “Discovery of Tetrahydroquinoxalines as Bromodomain and Extra-Terminal Domain (BET) Inhibitors with Selectivity for the Second Bromodomain” (J Med Chem, 2018).
Converted amounts (≈) assume the structure as drawn.

How the values were obtained:
[1] = target: T1, Bromodomain-containing protein 2 (Homo sapiens, UniProt P25440); test: Binding affinity to human partial length DNA-tagged BRD2 isoform 1 BD2 expressed in bacterial by BROMOscan method
Target sequence in this assay (P25440 whole entry, canonical isoform): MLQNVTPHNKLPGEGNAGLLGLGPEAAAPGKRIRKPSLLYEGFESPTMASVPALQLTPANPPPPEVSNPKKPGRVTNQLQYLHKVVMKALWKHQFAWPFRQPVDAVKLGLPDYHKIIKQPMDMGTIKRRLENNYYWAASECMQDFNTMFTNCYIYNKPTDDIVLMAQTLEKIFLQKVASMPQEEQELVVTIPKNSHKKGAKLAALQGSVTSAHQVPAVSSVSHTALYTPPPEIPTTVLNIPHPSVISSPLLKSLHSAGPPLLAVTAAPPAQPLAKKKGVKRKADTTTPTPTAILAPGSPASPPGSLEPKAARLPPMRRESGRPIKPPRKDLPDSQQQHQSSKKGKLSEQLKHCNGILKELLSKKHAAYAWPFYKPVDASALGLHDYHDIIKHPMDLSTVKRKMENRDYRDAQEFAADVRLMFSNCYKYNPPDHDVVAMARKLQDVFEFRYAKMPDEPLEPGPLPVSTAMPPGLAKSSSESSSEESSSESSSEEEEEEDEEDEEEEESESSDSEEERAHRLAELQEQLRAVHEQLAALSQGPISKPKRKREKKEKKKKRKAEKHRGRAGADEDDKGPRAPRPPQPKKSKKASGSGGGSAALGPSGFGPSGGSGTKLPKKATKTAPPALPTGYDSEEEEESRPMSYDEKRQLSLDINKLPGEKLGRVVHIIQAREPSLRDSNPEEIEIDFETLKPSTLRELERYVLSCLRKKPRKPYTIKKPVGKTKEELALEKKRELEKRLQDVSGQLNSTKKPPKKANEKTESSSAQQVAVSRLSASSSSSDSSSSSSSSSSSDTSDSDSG

[2] = target: E3 ubiquitin-protein ligase TRIM33 (Homo sapiens, UniProt Q9UPN9); test: Binding affinity to human partial length DNA-tagged TRIM33(PHD,Bromo.) expressed in bacteria by BROMOscan method
[3] = target: Transcription intermediary factor 1-alpha (Homo sapiens, UniProt O15164); test: Binding affinity to human partial length DNA-tagged TRIM24(PHD,Bromo.) expressed in bacteria by BROMOscan method
[4] = target: Histone acetyltransferase p300 (Homo sapiens, UniProt Q09472); test: Binding affinity to human partial length DNA-tagged EP300 expressed in bacteria by BROMOscan method
[5] = target: T2, Bromodomain-containing protein 4 (Homo sapiens, UniProt O60885); test: Binding affinity to human partial length DNA-tagged BRD4 isoform long BD2 expressed in bacterial by BROMOscan method
[6] = Permeability of the compound by PAMPA; type: ADME; conditions: read-out: permeability
[7] = target: T2, Bromodomain-containing protein 4; test: Selectivity ratio of Kd for human partial length DNA-tagged BRD4 isoform long BD1 to Kd for human partial length DNA-tagged BRD4 isoform long BD2
[8] = physchem; conditions: buffer, pH 7.4
Description: Chromatographic hydrophobicity index, log D of the compound at pH 7.4 by HPLC method

[9] = target: T3, Bromodomain testis-specific protein (Homo sapiens, UniProt Q58F21); test: Binding affinity to human partial length DNA-tagged BRDT isoform b BD1 expressed in bacterial by BROMOscan method
[10] = target: Bromodomain adjacent to zinc finger domain protein 2A (Homo sapiens, UniProt Q9UIF9); test: Binding affinity to human partial length DNA-tagged BAZ2A expressed in bacterial by BROMOscan method
[11] = Solubility of the compound in FaSSIF at pH 6.5 after 16 hrs by HPLC method; type: physicochemical
[12] = target: T4, Bromodomain-containing protein 3 (Homo sapiens, UniProt Q15059); test: Binding affinity to human partial length DNA-tagged BRD3 BD1 expressed in bacterial by BROMOscan method
[13] = target: Transcription initiation factor TFIID subunit 1 (Homo sapiens, UniProt P21675); test: Binding affinity to human partial length DNA-tagged TAF1 BD2 expressed in bacterial by BROMOscan method
[14] = target: T1, Bromodomain-containing protein 2; test: Inhibition of human BRD2 BD1 after 30 mins by TR-FRET assay
Target sequence in this assay (P25440 whole entry, canonical isoform): as above

[15] = target: SWI/SNF-related matrix-associated actin-dependent regulator of chromatin subfamily A member 2 (Homo sapiens, UniProt P51531); test: Binding affinity to human partial length DNA-tagged SMARCA2 expressed in bacteria by BROMOscan method
[16] = target: Bromodomain and PHD finger-containing protein 3 (Homo sapiens, UniProt Q9ULD4); test: Binding affinity to human partial length DNA-tagged BRPF3 expressed in bacteria by BROMOscan method
[17] = target: T1, Bromodomain-containing protein 2; test: Binding affinity to human partial length DNA-tagged BRD2 isoform 1 BD1 expressed in bacterial by BROMOscan method
Target sequence in this assay (P25440 whole entry, canonical isoform): as above

[18] = organism: Homo sapiens; test: Selectivity ratio of IC50 for human BRD2 BD1 to IC50 for human BRD2 BD2
[19] = target: T4, Bromodomain-containing protein 3; test: Inhibition of BRD3 BD1 (unknown origin) after 30 mins by TR-FRET assay
[20] = target: Bromodomain-containing protein 4 (Homo sapiens, UniProt O60885, Y390A)
[21] = target: CREB-binding protein (Homo sapiens, UniProt Q92793); test: Binding affinity to human partial length DNA-tagged CREBBP expressed in bacteria by BROMOscan method
[22] = target: T1, Bromodomain-containing protein 2; test: Selectivity ratio of Kd for human partial length DNA-tagged BRD2 isoform 1 BD1 to Kd for human partial length DNA-tagged BRD2 isoform 1 BD2
[23] = organism: Homo sapiens; test: Selectivity ratio of IC50 for BRDT BD1 (unknown origin) to IC50 for BRDT BD2 (unknown origin)
[24] = Solubility of the compound in pH 7.4 phosphate buffered saline by chemiluminescent nitrogen detection method; type: physicochemical
[25] = target: Nucleosome-remodeling factor subunit BPTF (Homo sapiens, UniProt Q12830); test: Binding affinity to human partial length DNA-tagged FALZ isoform1 expressed in bacteria by BROMOscan method
[26] = target: T3, Bromodomain testis-specific protein; test: Binding affinity to human partial length DNA-tagged BRDT isoform b BD2 expressed in bacterial by BROMOscan method
[27] = target: Protein polybromo-1 (Homo sapiens, UniProt Q86U86); test: Binding affinity to human partial length DNA-tagged PBRM1 BD5 expressed in bacteria by BROMOscan method
[28] = target: Transcription initiation factor TFIID subunit 1-like (Homo sapiens, UniProt Q8IZX4); test: Binding affinity to human partial length DNA-tagged TAF1L BD2 expressed in bacteria by BROMOscan method
[29] = target: Histone acetyltransferase KAT2B (Homo sapiens, UniProt Q92831); test: Binding affinity to human partial length DNA-tagged PCAF expressed in mammalian expression system by BROMOscan method
[30] = target: T2, Bromodomain-containing protein 4; test: Binding affinity to human partial length DNA-tagged BRD4 isoform long BD1 expressed in bacterial by BROMOscan method

T4 sequence (Q15059 whole entry): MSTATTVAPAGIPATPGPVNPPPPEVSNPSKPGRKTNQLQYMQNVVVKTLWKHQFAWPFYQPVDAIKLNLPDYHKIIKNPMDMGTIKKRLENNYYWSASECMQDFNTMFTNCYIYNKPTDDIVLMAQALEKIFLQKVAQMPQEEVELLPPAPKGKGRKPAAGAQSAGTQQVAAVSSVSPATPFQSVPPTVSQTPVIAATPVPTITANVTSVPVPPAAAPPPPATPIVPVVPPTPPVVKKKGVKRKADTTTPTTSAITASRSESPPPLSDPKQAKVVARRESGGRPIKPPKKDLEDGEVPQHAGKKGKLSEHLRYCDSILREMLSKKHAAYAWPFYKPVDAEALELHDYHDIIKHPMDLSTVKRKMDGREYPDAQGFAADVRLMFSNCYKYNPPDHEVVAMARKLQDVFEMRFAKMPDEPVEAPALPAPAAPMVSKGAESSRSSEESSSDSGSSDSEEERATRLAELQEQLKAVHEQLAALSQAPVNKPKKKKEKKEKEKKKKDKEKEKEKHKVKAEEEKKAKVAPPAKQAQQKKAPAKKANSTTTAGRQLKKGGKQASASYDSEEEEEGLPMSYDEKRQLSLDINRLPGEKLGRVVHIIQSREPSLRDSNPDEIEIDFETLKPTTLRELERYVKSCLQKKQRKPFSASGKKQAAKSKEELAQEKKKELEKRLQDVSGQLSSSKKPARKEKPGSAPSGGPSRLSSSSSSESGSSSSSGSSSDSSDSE
Sequence of Histone acetyltransferase KAT2B (Q92831 whole entry, canonical isoform): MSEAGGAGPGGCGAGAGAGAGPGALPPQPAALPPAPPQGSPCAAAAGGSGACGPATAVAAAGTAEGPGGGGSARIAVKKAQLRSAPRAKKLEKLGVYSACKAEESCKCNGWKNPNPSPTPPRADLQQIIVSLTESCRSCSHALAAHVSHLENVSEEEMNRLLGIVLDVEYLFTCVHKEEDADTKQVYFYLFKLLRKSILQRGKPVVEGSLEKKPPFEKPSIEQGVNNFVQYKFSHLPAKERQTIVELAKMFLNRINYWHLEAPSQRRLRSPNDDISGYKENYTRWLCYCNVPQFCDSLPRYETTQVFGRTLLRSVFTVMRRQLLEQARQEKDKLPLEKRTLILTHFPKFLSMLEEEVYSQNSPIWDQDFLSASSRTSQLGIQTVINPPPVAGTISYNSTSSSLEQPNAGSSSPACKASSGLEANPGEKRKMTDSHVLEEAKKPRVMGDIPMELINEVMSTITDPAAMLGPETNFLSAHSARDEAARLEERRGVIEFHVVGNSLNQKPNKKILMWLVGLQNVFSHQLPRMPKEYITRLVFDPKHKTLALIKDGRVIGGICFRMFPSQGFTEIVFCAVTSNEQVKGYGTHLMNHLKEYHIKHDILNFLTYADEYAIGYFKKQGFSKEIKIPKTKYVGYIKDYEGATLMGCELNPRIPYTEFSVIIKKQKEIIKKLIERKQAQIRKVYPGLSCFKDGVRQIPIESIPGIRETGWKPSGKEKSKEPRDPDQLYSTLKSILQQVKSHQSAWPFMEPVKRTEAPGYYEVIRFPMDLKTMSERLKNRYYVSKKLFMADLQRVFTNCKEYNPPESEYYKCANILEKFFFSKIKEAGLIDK
Sequence of SWI/SNF-related matrix-associated actin-dependent regulator of chromatin subfamily A member 2 (P51531 whole entry): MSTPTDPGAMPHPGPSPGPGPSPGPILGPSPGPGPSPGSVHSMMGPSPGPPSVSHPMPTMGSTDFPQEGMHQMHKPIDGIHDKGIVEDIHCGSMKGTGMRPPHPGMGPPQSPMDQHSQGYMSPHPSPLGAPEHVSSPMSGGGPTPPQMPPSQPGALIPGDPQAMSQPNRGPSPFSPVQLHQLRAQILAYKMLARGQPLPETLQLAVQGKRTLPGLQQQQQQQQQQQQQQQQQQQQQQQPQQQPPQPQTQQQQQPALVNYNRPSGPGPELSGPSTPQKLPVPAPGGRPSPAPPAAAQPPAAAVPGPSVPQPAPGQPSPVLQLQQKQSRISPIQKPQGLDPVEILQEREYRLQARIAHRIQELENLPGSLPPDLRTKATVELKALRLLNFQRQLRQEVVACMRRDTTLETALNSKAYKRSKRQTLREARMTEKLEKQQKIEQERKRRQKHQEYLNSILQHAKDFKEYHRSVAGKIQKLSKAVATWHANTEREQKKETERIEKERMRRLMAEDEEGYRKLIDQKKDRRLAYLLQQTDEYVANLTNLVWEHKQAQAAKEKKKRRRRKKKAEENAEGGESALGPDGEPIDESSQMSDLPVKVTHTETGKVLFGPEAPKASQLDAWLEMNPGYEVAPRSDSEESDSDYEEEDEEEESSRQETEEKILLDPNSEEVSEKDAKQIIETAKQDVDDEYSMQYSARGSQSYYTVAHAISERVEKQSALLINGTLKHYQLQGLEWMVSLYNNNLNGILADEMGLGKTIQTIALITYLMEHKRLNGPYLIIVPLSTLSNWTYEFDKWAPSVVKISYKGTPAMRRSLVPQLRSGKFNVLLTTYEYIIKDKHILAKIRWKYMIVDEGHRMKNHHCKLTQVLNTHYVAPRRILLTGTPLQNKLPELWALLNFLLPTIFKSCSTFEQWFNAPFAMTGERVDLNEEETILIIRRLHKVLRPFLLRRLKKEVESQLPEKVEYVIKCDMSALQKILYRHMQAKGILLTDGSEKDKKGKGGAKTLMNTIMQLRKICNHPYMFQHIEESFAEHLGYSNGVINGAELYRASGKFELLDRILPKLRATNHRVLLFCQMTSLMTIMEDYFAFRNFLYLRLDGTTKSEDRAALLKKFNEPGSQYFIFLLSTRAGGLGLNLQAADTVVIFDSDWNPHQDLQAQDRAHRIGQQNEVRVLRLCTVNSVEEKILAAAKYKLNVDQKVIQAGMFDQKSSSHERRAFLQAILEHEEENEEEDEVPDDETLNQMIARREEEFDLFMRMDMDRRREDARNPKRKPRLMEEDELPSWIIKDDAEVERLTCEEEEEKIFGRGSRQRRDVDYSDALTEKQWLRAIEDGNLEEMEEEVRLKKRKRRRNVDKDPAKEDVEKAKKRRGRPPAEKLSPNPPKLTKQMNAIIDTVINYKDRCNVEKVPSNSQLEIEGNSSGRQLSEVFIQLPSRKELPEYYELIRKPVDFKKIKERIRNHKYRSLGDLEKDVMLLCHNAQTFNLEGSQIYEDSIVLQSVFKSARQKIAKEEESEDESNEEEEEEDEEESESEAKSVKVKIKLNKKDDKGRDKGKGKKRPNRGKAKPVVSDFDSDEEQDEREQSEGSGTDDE
Sequence of Transcription intermediary factor 1-alpha (O15164 whole entry): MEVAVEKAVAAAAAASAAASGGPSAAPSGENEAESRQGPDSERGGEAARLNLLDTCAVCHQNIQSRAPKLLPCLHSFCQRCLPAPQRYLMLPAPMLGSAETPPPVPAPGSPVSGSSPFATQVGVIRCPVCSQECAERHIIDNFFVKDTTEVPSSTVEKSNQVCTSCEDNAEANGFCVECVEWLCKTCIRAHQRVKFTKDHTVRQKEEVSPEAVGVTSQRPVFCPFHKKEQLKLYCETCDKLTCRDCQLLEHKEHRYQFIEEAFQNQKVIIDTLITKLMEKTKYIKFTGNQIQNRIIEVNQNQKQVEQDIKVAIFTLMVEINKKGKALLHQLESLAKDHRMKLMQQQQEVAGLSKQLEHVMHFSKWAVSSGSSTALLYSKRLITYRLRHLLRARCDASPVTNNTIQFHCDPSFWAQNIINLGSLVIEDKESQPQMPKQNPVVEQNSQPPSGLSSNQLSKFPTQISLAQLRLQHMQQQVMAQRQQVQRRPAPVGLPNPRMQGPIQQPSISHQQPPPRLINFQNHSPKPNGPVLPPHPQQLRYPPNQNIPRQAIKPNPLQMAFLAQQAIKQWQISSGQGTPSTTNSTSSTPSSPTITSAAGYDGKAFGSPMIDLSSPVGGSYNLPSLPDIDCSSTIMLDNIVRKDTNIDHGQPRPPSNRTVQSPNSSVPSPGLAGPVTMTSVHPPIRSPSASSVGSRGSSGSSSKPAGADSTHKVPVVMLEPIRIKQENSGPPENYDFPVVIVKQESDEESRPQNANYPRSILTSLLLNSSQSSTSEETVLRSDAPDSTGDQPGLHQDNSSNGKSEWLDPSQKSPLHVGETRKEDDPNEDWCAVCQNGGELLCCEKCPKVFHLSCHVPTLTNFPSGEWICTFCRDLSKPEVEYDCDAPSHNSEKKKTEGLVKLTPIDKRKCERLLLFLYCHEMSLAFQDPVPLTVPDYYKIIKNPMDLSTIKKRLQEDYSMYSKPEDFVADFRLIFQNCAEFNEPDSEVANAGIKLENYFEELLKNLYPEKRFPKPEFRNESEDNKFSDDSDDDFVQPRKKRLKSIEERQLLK

`CC(=O)N1c2ccc(C3=CCNCC3)cc2N(Cc2ccccc2CO)C[C@@H]1C1CC1` showed a Kd [1] of 32.4 nM, a Kd [2] greater than 30200 nM and a Kd [3] greater than 30200 nM. For the same compound, the Kd [4] was greater than 30200 nM, the Kd [5] was 6.61 nM and the Papp [6] was 11 ×10⁻⁶ cm/s. For the same compound, the Selectivity ratio [7] was 229, the chromatographic logD [8] was 2.3 and the Kd [9] was 1860 nM. The Kd [10] was greater than 30200 nM, the solubility at 16 h [11] was 386 µg/mL (≈ 924 µM) and the Kd [12] was 912 nM. For the same compound, the Kd [13] was 14500 nM, the IC50 [14] was 2510 nM and the Kd [15] was greater than 30200 nM. It also gave a Kd [16] greater than 30200 nM, a Kd [17] of 1320 nM and a Ratio IC50 [18] of 8. The IC50 [19] was 1260 nM, the IC50 [20] was 3160 nM and the Kd [21] was greater than 30200 nM. It also gave a Selectivity ratio [22] of 41, a Ratio IC50 [23] of 8 and a solubility [24] of no less than 418 µM. The Kd [25] was greater than 30200 nM, the Kd [26] was 20.9 nM and the Kd [27] was greater than 30200 nM. For the same compound, the Kd [28] was greater than 30200 nM, the Kd [29] was greater than 30200 nM and the Kd [30] was 1550 nM.
